Results taken from EP0705816B1, “BENZENE DERIVATIVE USEFUL FOR ISCHEMIC DISEASES” (Chugai Seiyaku Kabushiki Kaisha, priority 1993, dated 1995).
Read-outs that look alike come from different tables or passages of the source.

Tests used:
ventricular myocytes [1] = test: Inhibitory action on calcium overload in vitro, Method B: veratridine-treated myocytes; format: cell-based, male Sprague-Dawley rat; conditions: 50 µg/ml of veratridine, read-out: Concentration at Which Cells Survived Almost Completely
Experimental: (§1) Incubated ventricular myocytes were prepared from the heart of male Sprague-Dawley rat weighing 300 to 500 g, using an enzyme-perfusion method. […]
The efficacy was evaluated in the same manner as in Method A, except for using 50 µg/ml of veratridine in place of veratrine (100 µg/ml).

rabbit LDL [2] = test: Inhibitory action on lipid peroxidation in vitro, Method A: oxidation of LDL by soybean lipoxygenase, fluorescence of the LDL fraction; format: biochemical; conditions: fluorescence intensity of LDL fraction, SLO 40 µg/ml, 37°C, 24 hours
Experimental: A test compound was added to rabbit LDL prepared according to the method of Havel, et al. (Havel RJ et al., J. Clin. Invest., 34, 1345 (1955)), and then a soybean lipoxygenase type-IS (SLO) was added to a final concentration of 40 µg/ml. Oxydation of LDL was carried out by incubating at 37°C in a CO2 incubator for 24 hours. The oxidized LDL solution was analyzed by gel-permeation chromatography, and the fluorescence intensity of the LDL fraction was measured at an excitation wavelength of 360 nm and an emission wavelength of 430 nm.

rabbit LDL [3] = test: Inhibitory action on lipid peroxidation in vitro, Method B: CuSO4 oxidation of LDL, TBARS by fluorometry; format: biochemical; conditions: 1 x 10^-5 M, CuSO4 1 µM, 37°C, 24 hours, 10 µM
Experimental: A test compound was added to rabbit LDL prepared according to the method of Havel, et al. (Havel RJ, et al., J. Clin. Invest., 34, 1345 (1955)), and then CuSO4 was added to a final concentration of 1 µM. Oxidation of LDL was performed by shaking at 37°C for 24 hours. The generated TBARS was measured by the method of Yagi utilizing fluorometry (Yagi, K., Biochem. Med., 15, 212 (1976)).

ventricular myocytes [4] = test: Inhibitory action on calcium overload in vitro, Method A: veratrine-treated myocytes; format: cell-based, male Sprague-Dawley rat; parameters: key: ++: The cells survived almost completely at 10^-7 M.; The cells died almost completely at 10 M^-8 M; conditions: compound 30 minutes, then 100 µg/ml of veratrine; shape of cells observed five minutes later
Experimental: as §1

[5] = Rattus norvegicus, Ventricular myocyte

CN(CCCOc1ccc2c(c1)OCO2)CCCN1C(=O)CSC1c1cc(C(C)(C)C)c(O)c(C(C)(C)C)c1 (centres unmarked) [Compound (17)]
minimal effective concentration (ventricular myocytes [1]; [5]): 0.32 µM | Percent (%) of Control (rabbit LDL [2]; 5 x 10^-6 M): 3.9% | Percent (%) of Control (rabbit LDL [2]; 5 x 10^-7 M, 0.5 µM): 16.4% | % of Control (rabbit LDL [3]): 21.0%

COc1ccc(CCN(C)CCCN2C(=O)CSC2c2cc(C(C)(C)C)c(O)c(C(C)(C)C)c2)cc1OC (centres unmarked) [Compound (20)]
Percent (%) of Control (rabbit LDL [2]; 5 x 10^-6 M): 0.6% | Percent (%) of Control (rabbit LDL [2]; 5 x 10^-7 M, 0.5 µM): 8.7% | Survival Rate of Cells (ventricular myocytes [4]): + | % of Control (rabbit LDL [3]): 21.3%

CN(CCCN1C(=O)CSC1c1cc(C(C)(C)C)c(O)c(C(C)(C)C)c1)CCOc1ccc2c(c1)OCO2 (single isomer, unassigned; (+)) [Compound (70), (+)-2-(3,5-Di-tert-butyl-4-hydroxyphenyl)-3-[3-[N-methyl-N-[2-(3,4-methylenedioxyphenoxy)ethyl]amino]propyl]-1,3-thiazolidin-4-one]
Percent (%) of Control (rabbit LDL [2]; 5 x 10^-6 M, 5 µM): 5.1% | Percent (%) of Control (rabbit LDL [2]; 5 x 10^-7 M, 0.5 µM): 15.2% | % of Control (rabbit LDL [3]): 21.1%

CN(CCCN1C(=O)C(CCO)SC1c1cc(C(C)(C)C)c(O)c(C(C)(C)C)c1)CCOc1ccc2c(c1)OCO2 (centres unmarked) [Compound (49), 2-(3,5-Di-tert-butyl-4-hydroxyphenyl)-3-[3-[N-methyl-N-[2-(3,4-methylenedioxyphenoxy)ethyl]amino]propyl]-5-(2-hydroxyethyl)-1,3-thiazolidin-4-one]
% of Control (rabbit LDL [3]): 15.7%

COc1ccc([C@@H]2Sc3ccccc3N(CCN(C)C)C(=O)[C@@H]2OC(C)=O)cc1 [Diltiazem, reference compound]
minimal effective concentration (ventricular myocytes [1]; Rattus norvegicus, Ventricular myocyte, symbol defined by footnote): > 1 µM | Percent (%) of Control (rabbit LDL [2]; 5 x 10^-6 M): 110.7% | Percent (%) of Control (rabbit LDL [2]; 5 x 10^-7 M, 0.5 µM): 109.1% | Survival Rate of Cells (ventricular myocytes [4]): - | % of Control (rabbit LDL [3]): 96.9%

CN(CCCN1C(=S)CSC1c1cc(C(C)(C)C)c(O)c(C(C)(C)C)c1)CCOc1ccc2c(c1)OCO2 (centres unmarked) [Compound (57), 2-(3,5-Di-tert-butyl-4-hydroxyphenyl)-3-[3-[N-methyl-N-[2-(3,4-methylenedioxyphenoxy)ethyl]amino]propyl]-1,3-thiazolidin-4-thione]
Percent (%) of Control (rabbit LDL [2]; 5 x 10^-6 M): 11.3% | Percent (%) of Control (rabbit LDL [2]; 5 x 10^-7 M, 0.5 µM): 22.8% | % of Control (rabbit LDL [3]): 23.0%

CN(CCCCN1C(=O)CSC1c1cc(C(C)(C)C)c(O)c(C(C)(C)C)c1)CCOc1ccc2c(c1)OCO2 (centres unmarked) [Compound (8)]
Survival Rate of Cells (ventricular myocytes [4]): ++

C[C@H]1S[C@H](c2cc(C(C)(C)C)c(O)c(C(C)(C)C)c2)N(CCCN(C)CCOc2ccc3c(c2)OCO3)C1=O (relative stereo) [Compound (72), 2,5-Trans-2-(3,5-di-tert-butyl-4-hydroxyphenyl)-3-[3-[N-methyl-[2-(3,4-methylenedioxyphenoxy)ethyl]amino]propyl]-5-methyl-1,3-thiazolidin-4-one]
minimal effective concentration (ventricular myocytes [1]; [5]): 0.32 µM

CC1SC(c2cc(C(C)(C)C)c(O)c(C(C)(C)C)c2)N(CCCN(C)CCOc2ccc3c(c2)OCO3)C1=O (single isomer, unassigned; (+)) [Compound (74), (+)-2,5-Cis-2-(3,5-di-tert-butyl-4-hydroxyphenyl)-3-[3-[N-methyl-N-[2-(3,4-methylenedioxyphenoxy)ethyl]amino]propyl]-5-methyl-1,3-thiazolidin-4-one]
minimal effective concentration (ventricular myocytes [1]; [5]): 0.32 µM

CN(CCCN1C(=O)C(OCCO)SC1c1cc(C(C)(C)C)c(O)c(C(C)(C)C)c1)CCOc1ccc2c(c1)OCO2 (centres unmarked) [Compound (55)]
% of Control (rabbit LDL [3]): 20.0%

CN(CCCCCN1C(=O)CSC1c1cc(C(C)(C)C)c(O)c(C(C)(C)C)c1)CCOc1ccc2c(c1)OCO2 (centres unmarked) [Compound (9)]
Percent (%) of Control (rabbit LDL [2]; 5 x 10^-6 M): 5.9% | Percent (%) of Control (rabbit LDL [2]; 5 x 10^-7 M, 0.5 µM): 13.5% | Survival Rate of Cells (ventricular myocytes [4]): ++ | % of Control (rabbit LDL [3]): 26.4%

CN(CCCN1C(=O)CSC1c1cc(C(C)(C)C)c(O)c(C(C)(C)C)c1)CCOc1ccc2c(c1)OCO2 (centres unmarked) [Compound (26), 2-(3,5-Di-tert-butyl-4-hydroxyphenyl)-3-[3-[N-methyl-N-[2-(3,4-methylenedioxyphenoxy)ethyl]amino]propyl]-1,3-thiazolidin-4-one]
Survival Rate of Cells (ventricular myocytes [4]): ++

CCOC(=O)CC1SC(c2cc(C(C)(C)C)c(O)c(C(C)(C)C)c2)N(CCCN(C)CCOc2ccc3c(c2)OCO3)C1=O (centres unmarked) [Compound (46), 2-(3,5-Di-tert-butyl-4-hydroxyphenyl)-3-[3-[N-methyl-N-[2-(3,4-methylenedioxyphenoxy)ethyl]amino]propyl]-5-ethoxycarbonylmethyl-1,3-thiazolidin-4-one]
% of Control (rabbit LDL [3]): 20.4%

CC(C)(C)c1cc(C2SCC(=O)N2CCCN2CCC(Oc3ccc4c(c3)OCO4)CC2)cc(C(C)(C)C)c1O (centres unmarked) [Compound (34)]
minimal effective concentration (ventricular myocytes [1]; [5]): 0.32 µM | % of Control (rabbit LDL [3]): 20.5%

CC1SC(c2cc(C(C)(C)C)c(O)c(C(C)(C)C)c2)N(CCCN(C)CCOc2ccc3c(c2)OCO3)C1=O (single isomer, unassigned; (-)) [Compound (75), (-)-2,5-Cis-2-(3,5-di-tert-butyl-4-hydroxyphenyl)-3-[3-[N-methyl-N-[2-(3,4-methylenedioxyphenoxy)ethyl]amino]propyl]-5-methyl-1,3-thiazolidin-4-one]
minimal effective concentration (ventricular myocytes [1]): 0.32 µM

CC1SC(c2cc(C(C)(C)C)c(O)c(C(C)(C)C)c2)N(CCCN(C)CCOc2ccc3c(c2)OCO3)C1=O (centres unmarked) [Compound (41), 2-(3,5-Di-tert-butyl-4-hydroxyphenyl)-3-[3-[N-methyl-N-[2-(3,4-methylenedioxyphenoxy)ethyl]amino]propyl]-5-methyl-1,3-thiazolidin-4-one]
Percent (%) of Control (rabbit LDL [2]; 5 x 10^-6 M): 6.2% | Percent (%) of Control (rabbit LDL [2]; 5 x 10^-7 M, 0.5 µM): 18.3% | % of Control (rabbit LDL [3]): 26.3%

CCN(CCCN1C(=O)CSC1c1cc(C(C)(C)C)c(O)c(C(C)(C)C)c1)CCOc1ccc2c(c1)OCO2 (centres unmarked) [Compound (12)]
Percent (%) of Control (rabbit LDL [2]; 5 x 10^-6 M): 6.4% | Percent (%) of Control (rabbit LDL [2]; 5 x 10^-7 M, 0.5 µM): 16.8% | Survival Rate of Cells (ventricular myocytes [4]): ++ | % of Control (rabbit LDL [3]): 25.9%

CN(CCCN1C(=O)C(CC(=O)N(C)C)SC1c1cc(C(C)(C)C)c(O)c(C(C)(C)C)c1)CCOc1ccc2c(c1)OCO2 (centres unmarked) [Compound (51)]
% of Control (rabbit LDL [3]): 16.6%

CN(CCCN1C(=O)CSC1c1cc(C(C)(C)C)c(O)c(C(C)(C)C)c1)CCOc1ccc2c(c1)OCO2 (single isomer, unassigned; (-)) [Compound (71), (-)-2-(3,5-Di-tert-butyl-4-hydroxyphenyl)-3-[3-[N-methyl-N-[2-(3,4-methylenedioxyphenoxy)ethyl]amino]propyl]-1,3-thiazolidin-4-one]
Percent (%) of Control (rabbit LDL [2]; 5 x 10^-6 M, 5 µM): 2.8% | Percent (%) of Control (rabbit LDL [2]; 5 x 10^-7 M, 0.5 µM): 12.7% | % of Control (rabbit LDL [3]): 23.8%
